Assay results from ChEMBL document CHEMBL6127128, “Discovery of the First-in-Class Dual-Target ROCK/HDAC Inhibitor with Potent Antitumor Efficacy in Vivo That Trigger Antitumor Immunity” (J Med Chem, 2024).
Activity calls are given as the source filed them. The calls are words filed in the database; no cut-off is given here.

Key:
Histone deacetylase 7 = target: T1, Histone deacetylase 7 (Homo sapiens, UniProt Q8WUI4); assay: Inhibition of HDAC7 (unknown origin) using Ac-Leu-Gly-Lys(tfa)-AMC as substrate preincubated for 5 mins followed by substrate addition for 30 mins and measured following trypsin addition for 30 mins by fluorescence based analysis
T1 sequence (Q8WUI4 whole entry): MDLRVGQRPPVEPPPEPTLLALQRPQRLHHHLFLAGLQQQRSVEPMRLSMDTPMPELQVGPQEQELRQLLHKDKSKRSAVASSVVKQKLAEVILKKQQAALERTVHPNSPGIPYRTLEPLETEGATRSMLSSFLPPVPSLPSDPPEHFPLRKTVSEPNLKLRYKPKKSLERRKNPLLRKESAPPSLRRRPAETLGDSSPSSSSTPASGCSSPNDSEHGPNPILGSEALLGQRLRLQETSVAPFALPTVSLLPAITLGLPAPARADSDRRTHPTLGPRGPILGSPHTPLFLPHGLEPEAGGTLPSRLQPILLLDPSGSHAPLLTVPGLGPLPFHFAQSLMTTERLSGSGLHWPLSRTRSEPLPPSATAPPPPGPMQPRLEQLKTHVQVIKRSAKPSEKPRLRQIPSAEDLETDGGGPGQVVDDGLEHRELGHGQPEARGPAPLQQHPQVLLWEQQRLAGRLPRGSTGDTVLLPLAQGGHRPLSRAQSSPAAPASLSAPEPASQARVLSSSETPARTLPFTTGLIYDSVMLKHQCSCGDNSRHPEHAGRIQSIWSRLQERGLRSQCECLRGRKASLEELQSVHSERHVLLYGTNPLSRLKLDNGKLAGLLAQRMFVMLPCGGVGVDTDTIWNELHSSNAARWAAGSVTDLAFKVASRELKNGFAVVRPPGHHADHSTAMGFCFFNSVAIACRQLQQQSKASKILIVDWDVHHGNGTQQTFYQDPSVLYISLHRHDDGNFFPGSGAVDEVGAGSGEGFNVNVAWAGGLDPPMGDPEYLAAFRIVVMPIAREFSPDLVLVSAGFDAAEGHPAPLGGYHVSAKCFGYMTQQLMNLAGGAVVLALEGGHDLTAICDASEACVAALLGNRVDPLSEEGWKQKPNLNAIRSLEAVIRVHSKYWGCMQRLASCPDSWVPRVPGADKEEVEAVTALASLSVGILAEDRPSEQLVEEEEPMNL

Histone deacetylase 8 = target: T2, Histone deacetylase 8 (Homo sapiens, UniProt Q9BY41); assay: Inhibition of HDAC8 (unknown origin) using Ac-Leu-Gly-Lys(tfa)-AMC as substrate preincubated for 5 mins followed by substrate addition for 30 mins and measured following trypsin addition for 30 mins by fluorescence based analysis
T2 sequence (Q9BY41 whole entry): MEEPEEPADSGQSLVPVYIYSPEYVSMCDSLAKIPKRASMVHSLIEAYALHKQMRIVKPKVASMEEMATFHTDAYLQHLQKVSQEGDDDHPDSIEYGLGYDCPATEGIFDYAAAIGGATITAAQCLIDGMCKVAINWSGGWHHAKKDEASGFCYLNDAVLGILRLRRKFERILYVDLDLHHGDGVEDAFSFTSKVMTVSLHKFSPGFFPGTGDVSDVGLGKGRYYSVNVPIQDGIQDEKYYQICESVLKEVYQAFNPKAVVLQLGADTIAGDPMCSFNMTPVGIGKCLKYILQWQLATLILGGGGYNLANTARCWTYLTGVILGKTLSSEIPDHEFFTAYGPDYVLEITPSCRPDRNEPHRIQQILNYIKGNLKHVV

Histone deacetylase 9 = Histone deacetylase 9 (Homo sapiens, UniProt Q9UKV0); assay: Inhibition of HDAC9 (unknown origin) using Ac-Leu-Gly-Lys(tfa)-AMC as substrate preincubated for 5 mins followed by substrate addition for 30 mins and measured following trypsin addition for 30 mins by fluorescence based analysis
MDA-MB-231 = assay: Induction of immunogenic cell death-associated DAMP release in human MDA-MB-231 cells assessed as increase in CRT expression level by measuring increase in green fluorescence intensity at 1 to 10 uM incubated for 24 hrs by DAPI staining based immunofluorescence analysis; assay type: functional; conditions: dose 1-10 µM
4T1 [1] = assay: Antitumor activity against mouse 4T1 cells implanted in Balb/c mouse assessed as tumor weight at 50 mg/kg, po administered daily for 15 days; assay type: functional; conditions: time 15 day
4T1 [2] = assay: animal or person; assay type: functional; conditions: Mus musculus, 4T1, 360 h, route po, time 15 day, read-out: TGI
Description: Antitumor activity against mouse 4T1 cells implanted in Balb/c mouse assessed as inhibition of tumor growth rate at 50 mg/kg, po administered daily for 15 days

[3] = Toxicity against Balb/c mouse implanted with mouse 4T1 cells assessed as effect on morphological changes in liver at 25 to 50 mg/kg, po administered daily for 15 days by Hematoxylin-Eosin staining based analysis; assay type: organism-based; conditions: in vivo, 360 h, dose 25-50 mg/kg, time 15 day
[4] = Toxicity against Balb/c mouse implanted with mouse 4T1 cells assessed as effect on morphological changes in lung at 25 to 50 mg/kg, po administered daily for 15 days by Hematoxylin-Eosin staining based analysis; assay type: organism-based; conditions: in vivo, 360 h, dose 25-50 mg/kg, time 15 day
[5] = Lipophilicity, log D of the compound at pH 7.4; assay type: physicochemical; conditions: buffer
[6] = Tmax in Balb/c mouse at 50 mg/kg, po measured for 24 hrs by LC-MS/MS analysis; assay type: ADME, organism-based; conditions: in vivo
4T1 [7] = assay: Antitumor immunity against mouse 4T1 cells implanted in Balb/c mouse assessed as increase in CD40+ dendritic cells in tumor tissue at 25 mg/kg, po administered daily for 15 days by immunohistochemistry; assay type: functional, organism-based; conditions: time 15.0 day
4T1 [8] = assay: Antitumor immunity against mouse 4T1 cells implanted in Balb/c mouse assessed as increase in CD4+ T cells in tumor tissue at 25 mg/kg, po administered daily for 15 days by flow cytometry; assay type: functional, organism-based; conditions: time 15.0 day
4T1 [9] = assay: Antitumor immunity against mouse 4T1 cells implanted in Balb/c mouse assessed as increase in CD4+ T cells in tumor tissue at 50 mg/kg, po administered daily for 15 days by flow cytometry relative to SAHA; assay type: functional; conditions: time 15 day

Sequence of Histone deacetylase 9 (Q9UKV0 whole entry): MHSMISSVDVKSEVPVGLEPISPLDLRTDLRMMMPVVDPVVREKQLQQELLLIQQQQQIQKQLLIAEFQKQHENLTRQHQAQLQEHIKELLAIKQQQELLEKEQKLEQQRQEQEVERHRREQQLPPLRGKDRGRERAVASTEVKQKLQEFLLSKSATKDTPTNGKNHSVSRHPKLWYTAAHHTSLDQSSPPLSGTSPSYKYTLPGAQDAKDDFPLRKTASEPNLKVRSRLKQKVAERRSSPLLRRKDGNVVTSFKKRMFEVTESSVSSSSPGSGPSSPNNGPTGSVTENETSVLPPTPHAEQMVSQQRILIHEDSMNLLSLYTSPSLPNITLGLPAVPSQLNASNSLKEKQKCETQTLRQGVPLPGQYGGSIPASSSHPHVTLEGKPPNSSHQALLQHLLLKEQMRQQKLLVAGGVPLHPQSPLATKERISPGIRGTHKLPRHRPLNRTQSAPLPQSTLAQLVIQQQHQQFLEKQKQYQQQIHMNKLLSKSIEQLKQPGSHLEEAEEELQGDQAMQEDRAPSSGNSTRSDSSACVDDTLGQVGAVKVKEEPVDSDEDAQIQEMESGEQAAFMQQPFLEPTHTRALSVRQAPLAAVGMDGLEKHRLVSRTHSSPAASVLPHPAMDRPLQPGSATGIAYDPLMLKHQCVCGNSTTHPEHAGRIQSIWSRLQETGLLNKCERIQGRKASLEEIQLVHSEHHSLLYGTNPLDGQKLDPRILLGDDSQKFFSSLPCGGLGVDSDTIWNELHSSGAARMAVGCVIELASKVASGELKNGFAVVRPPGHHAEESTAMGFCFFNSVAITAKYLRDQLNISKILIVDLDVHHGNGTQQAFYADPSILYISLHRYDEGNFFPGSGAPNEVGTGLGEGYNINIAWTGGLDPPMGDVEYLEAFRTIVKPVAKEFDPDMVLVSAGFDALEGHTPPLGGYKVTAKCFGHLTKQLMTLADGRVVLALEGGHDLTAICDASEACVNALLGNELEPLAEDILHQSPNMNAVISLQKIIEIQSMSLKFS

For O=C(CCCCCCNC(=O)c1cc2cc(-c3cn[nH]c3)ccc2s1)NO, which IC50 (Histone deacetylase 7) is on record?
Its IC50 is > 10 µM.

And the IC50 (Histone deacetylase 8)?
The IC50 was 0.00769 µM.

And the IC50 (Histone deacetylase 9)?
The IC50 was > 10 µM.

And the Activity (MDA-MB-231)?
The Activity was “Active”.

What about the Activity (4T1 [1]) of the same molecule?
Its Activity is 0.16 g.

And the inhibition in vivo at 50 mg/kg (4T1 [2])?
The inhibition in vivo at 50 mg/kg was 69.4%.

What about the Activity [3] of the same molecule?
The Activity was “Non-Toxic”.

And the Activity [4]?
The Activity was “Non-Toxic”.

What about the logD [5] of the same molecule?
The logD was 3.29.

And the Tmax [6]?
Its Tmax is 1.8 min.

And the Activity (4T1 [7])?
Its Activity is “Active”.

What about the Activity (4T1 [8]) of the same molecule?
The Activity was “Active”.

And the “fold change (FC)” value (4T1 [9])?
The value was 1.82.
